According to PMC6934184, “Selective DNA-PKcs inhibition extends the therapeutic index of localized radiotherapy and chemotherapy” (The Journal of Clinical Investigation, 2019):

Target: T1, PKN2 (PRK2) (Homo sapiens, UniProt Q16513)
T1 construct: purchased Thermo Fisher Scientific (Life Technologies) SelectScreen
Test: SelectScreen LanthaScreen
Type: binding
Conditions: read-out: % displacement
Summary of the method: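 Percent values come from Thermo SelectScreen profiling of NU5455, combining activity and binding assays. CSF1R was run in Z'LYTE format at Km app ATP, and CAMK1 in Adapta format with ATP listed at 10.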

T1 sequence (Q16513 whole entry): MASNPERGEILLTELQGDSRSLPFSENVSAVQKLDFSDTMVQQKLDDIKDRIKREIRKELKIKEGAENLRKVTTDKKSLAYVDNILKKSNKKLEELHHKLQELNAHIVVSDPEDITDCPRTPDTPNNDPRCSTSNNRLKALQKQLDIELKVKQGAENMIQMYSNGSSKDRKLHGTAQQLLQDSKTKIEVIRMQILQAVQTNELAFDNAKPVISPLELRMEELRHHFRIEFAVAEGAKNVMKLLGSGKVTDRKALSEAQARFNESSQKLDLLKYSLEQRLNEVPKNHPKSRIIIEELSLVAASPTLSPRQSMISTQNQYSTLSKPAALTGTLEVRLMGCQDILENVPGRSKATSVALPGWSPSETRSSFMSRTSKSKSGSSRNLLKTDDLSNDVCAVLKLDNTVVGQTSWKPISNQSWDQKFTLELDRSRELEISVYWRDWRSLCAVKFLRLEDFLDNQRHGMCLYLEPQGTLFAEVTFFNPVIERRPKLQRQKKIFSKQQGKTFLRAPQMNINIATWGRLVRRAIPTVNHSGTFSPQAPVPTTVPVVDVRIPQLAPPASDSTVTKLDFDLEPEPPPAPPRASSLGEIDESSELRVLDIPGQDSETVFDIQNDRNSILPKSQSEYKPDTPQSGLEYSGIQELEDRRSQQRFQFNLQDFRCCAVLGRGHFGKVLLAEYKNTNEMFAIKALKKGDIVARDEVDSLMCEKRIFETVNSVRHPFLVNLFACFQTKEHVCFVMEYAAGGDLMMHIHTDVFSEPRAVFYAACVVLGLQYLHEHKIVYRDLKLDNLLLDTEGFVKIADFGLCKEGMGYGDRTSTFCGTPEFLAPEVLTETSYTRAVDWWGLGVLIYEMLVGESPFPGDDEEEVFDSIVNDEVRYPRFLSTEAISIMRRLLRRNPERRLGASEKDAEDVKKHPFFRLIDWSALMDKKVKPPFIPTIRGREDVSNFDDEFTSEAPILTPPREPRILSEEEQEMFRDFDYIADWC

`CN(C(=O)CN1CCOCC1)c1ccc2sc3c(-c4cccc5c(=O)cc(N6CC7CCC(C6)O7)oc45)cccc3c2c1` [NU5455] was tested, and the inhibition at 1 µM was -1%.
